Source: PubChem BioAssay (NCI)
Where “and” joins values, the source holds several entries; their conditions need not be identical. Identical values can stand only once.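 All cell lines were grown in 96-well plates and treated with compound for 48 hours. Here, GI50 denotes the concentration required for 50% inhibition of growth. TGI marks complete inhibition of growth.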

What was measured:
Assay in all cases: NCI-60 cell line screen, 48 h
[1] = test system: M14 melanoma
[2] = test system: MCF7 breast
[3] = test system: SK-OV-3 ovarian
[4] = test system: UO-31 renal
[5] = test system: A498 renal
[6] = test system: HCT-116 colon
[7] = test system: HCT-15 colon
[8] = test system: HS 578T breast
[9] = test system: BT-549 breast
[10] = test system: HCC-2998 colon

Row | SMILES | TGI [1] | TGI [2] | TGI [3] | TGI [4] | TGI [5] | TGI [6] | TGI [7] | TGI [8] | TGI [9] | TGI [10] | GI50 [3] | GI50 [4] | GI50 [5] | GI50 [6] | GI50 [7] | GI50 [10] | GI50 [1] | GI50 [2] | GI50 [8] | GI50 [9]
1 | O=P1(O)c2ccccc2Nc2cc(C(F)(F)F)ccc21 | > 100 µM | > 100 µM | > 100 µM | > 100 µM | > 100 µM | > 100 µM | > 100 µM | > 100 µM | > 100 µM | > 100 µM | – | – | – | – | – | – | – | – | – | –
2 | CNc1nc(N(C)C)nc(N(C)C)n1 | 2600 µM | 1790 µM | > 100 µM and 3640 µM | > 100 µM and 3250 µM | > 100 µM and 2970 µM | > 100 µM and 1930 µM | > 100 µM and 2770 µM | 4450 µM | 3620 µM | > 100 µM and 3590 µM | > 100 µM and 1390 µM | > 100 µM and 828 µM | > 100 µM and 1300 µM | > 100 µM and 809 µM | > 100 µM and 936 µM | > 100 µM and 1520 µM | – | – | – | –
3 | CCCCCCCCCCCC[n+]1ccc(C(N)=O)cc1 | 9.7 µM | 15.4 µM | 15.2 µM | 24.7 µM | 19.5 µM | 20.5 µM | 43.6 µM | 8.49 µM | 4.7 µM | 10.9 µM | 4.18 µM | 9.08 µM | 4.85 µM | 4.58 µM | 12.7 µM | 2.71 µM | 2.58 µM | 3.7 µM | 2.55 µM | 1.93 µM
4 | C=C1C(=O)O[C@H]2[C@H]1CC/C(CNS(=O)(=O)c1cccc3ccccc13)=C\CC[C@@]1(C)O[C@@H]21 | 3.32 µM | 3.14 µM | 24.5 µM | 2.94 µM | 17.2 µM | 2.3 µM | 2.7 µM | 18.4 µM | 3.1 µM | 4.87 µM | 12.1 µM | 1.45 µM | 4.85 µM | 1.08 µM | 1.25 µM | 2.16 µM | 1.53 µM | 1.36 µM | 3.46 µM | 1.56 µM
5 | O=C(/C=C/c1ccc(C(F)(F)F)cc1)c1ccc(Nc2nc(NCCO)nc(N3CCOCC3)n2)cc1 | 4.28 µM | 3.95 µM | > 100 µM | 2.58 µM | 12 µM | 2.74 µM | 4.82 µM | – | 3.09 µM | 5.7 µM | 3.82 µM | 1.31 µM | 1.4 µM | 1.43 µM | 1.89 µM | 2.34 µM | 2.01 µM | 1.25 µM | 2.61 µM | 1.56 µM
6 | COc1ccc2c(c1)OC(N)=C(C#N)C2c1ccc(F)cc1 (stereo not given) | 44.2 µM | > 100 µM | 66.3 µM | > 100 µM | 63.4 µM | 26 µM | 51.6 µM | > 100 µM | 31.2 µM | > 100 µM | 2.94 µM | 5.64 µM | 2.81 µM | 1.09 µM | 0.515 µM | 6.44 µM | 0.529 µM | 0.522 µM | 3.84 µM | 1.63 µM
7 | N=C(N)c1ccc(-c2ccc(-c3cccs3)s2)nc1 | 3.63 µM | 3.3 µM | 5.88 µM | 3.92 µM | 0.74 µM | 2.79 µM | 4.47 µM | 4.66 µM | 16.3 µM | 2.08 µM | 1.56 µM | 0.545 µM | 0.165 µM | 1.38 µM | 1.93 µM | 0.771 µM | 1.86 µM | 1.32 µM | 1.55 µM | 4.79 µM
8 | O=C(N/N=C\c1ccc(N(CCCl)CCCl)cc1Cl)c1cccnc1 | > 83.7 µM | > 82.6 µM | > 100 µM | 52.9 µM | 0.179 µM | 36.6 µM | > 100 µM | > 94 µM | > 76 µM | 68.1 µM | 26.6 µM | 14.6 µM | 0.0664 µM | 3.23 µM | 29 µM | 17.2 µM | 26.5 µM | 1.39 µM | 31.7 µM | 22.7 µM
9 | COc1ccc(/C=C/C(=O)c2cc3c(N)c(C(=O)Nc4ccccc4)sc3nc2C)cc1 | > 50 µM | > 50 µM | > 50 µM | 20.1 µM | 0.487 µM | 5.1 µM | 8.53 µM | > 50 µM | > 50 µM | 6.53 µM | 0.248 µM | 0.688 µM | 0.114 µM | 0.189 µM | 0.205 µM | 0.785 µM | 0.0907 µM | 0.128 µM | 0.153 µM | 0.797 µM
10 | CC1/C(=N/Nc2ccc([N+](=O)[O-])cc2)CC2C3(C)CCC2(C(C)C(=O)O)C(=O)C13 (stereo not given) | > 100 µM | > 100 µM | > 100 µM | > 100 µM | 41.9 µM | > 100 µM | > 100 µM | > 100 µM | > 100 µM | 51.7 µM | > 100 µM | 4.31 µM | 0.85 µM | 6.97 µM | 4.22 µM | 2.39 µM | 11.2 µM | 7.17 µM | 3.55 µM | 12.3 µM
11 | C=C1CC[C@@H]2[C@](C)(COC(C)=O)[C@H](OC(C)=O)CC[C@@]2(C)[C@@H]1C/C=C1/C(=O)OC[C@H]1OC(C)=O | 6.48 µM | 6.79 µM | 36.3 µM | 3.89 µM | 27.5 µM | 2.98 µM | 4.33 µM | 55.3 µM | 5.63 µM | 27.3 µM | 19.1 µM | 1.91 µM | 14.4 µM | 1.45 µM | 1.58 µM | 12.2 µM | 2.22 µM | 1.83 µM | 12.3 µM | 2.29 µM
12 | Oc1c(N=Nc2ccccc2)c2ccccc2c2ccc3ccccc3c12 | > 100 µM | > 100 µM | > 100 µM | > 100 µM | > 100 µM | > 100 µM | > 100 µM | > 100 µM | > 100 µM | > 100 µM | – | – | – | – | – | – | – | – | – | –
